Measured values published in patent US5338868A, “Process for preparing alpha-amino-phenylacetic acid-trifluoromethane sulfonic acid mixed anhydrides” (Chinoin Gyogyszer- es Vegyeszeti Termekek Gyara Rt., priority 1989, dated 1994).

Assay: Quality of the Dane salt during storage for 30 days
Assay type: physicochemical

quality during storage (room temperature, air)	Compound	quality after storage (stored at room temperature)
does not change	CCOC(=O)C=C(C)N[C@@H](C(=O)O)c1ccc(O)cc1 [Example 9]	
	CCOC(=O)C=C(C)N[C@@H](C(=O)[O-])c1ccccc1.[Na+] [Example 15, sodium-D-N-(2-ethoxycarbonyl-1-methyl-vinyl)-α-amino-phenyl-acetate]	remains unchanged
